Earlier results, collected in patent US20210299068A1, “ANTIMICROBIAL COMPOSITIONS COMPRISING CHLORHEXIDINE” (3M INNOVATIVE PROPERTIES COMPANY, priority 2018, published 2021).

Details: at neutral pH

For `O=C([O-])CN(CCO)CCN(CC(=O)[O-])CC(=O)[O-].[Na+].[Na+].[Na+]` [HEDTA.Na3, N-(2-Hydroxyethyl)ethylenediaminetriacetic acid trisodium salt], which “Formation constant for the complex with calcium” value is on record?
The value was 10^6.
